Data published in patent US9266904B2, “6-bridged heteroaryldihydropyrimidines for the treatment and prophylaxis of hepatitis B virus infection” (priority 2013, dated 2016).
Values after ≈ are worked out from the molar mass of the structure shown. Read-outs that look alike come from different tables or passages of the source.

Experiments:
[1] = Lyophilisation solubility assay (Lysa); assay type: physicochemical; conditions: thermodynamic from solid
Method in brief: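 DMSO was evaporated from 10 mM stocks, and residues were taken up in 0.05 M phosphate buffer pH 6.5, stirred 1 h, shaken 2 h and left overnight. Filtrates were quantified by UV or HPLC-UV against a four-point calibration, in duplicate. Values are in μg/ml, with a lower-bound value when >80% dissolved.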

[2] = test system: HBV replication in HepG2.2.15 cells; assay: Anti-HBV activity in vitro in HepG2.2.15 cells (extracellular HBV DNA by qPCR); assay type: cell-based; conditions: Hepatitis B virus, HepG2.2.15, Anti-HBV activity in HepG2.2.15 cells; read-out: EC50
Method in brief: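 Constitutively HBV-producing HepG2.2.15 cells were seeded overnight at 37 °C, then treated with half-log serial dilutions of compound (0.5% DMSO final) for five days. Supernatant HBV DNA was extracted and quantified by qPCR; EC50 is the concentration inhibiting HBV replication by 50%.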

[3] = test system: HepDE19 cells; assay: Cytotoxicity (CCK-8 cell viability) and selectivity index; assay type: cell-based, human; conditions: CC50 value/EC50 value
Method in brief: (§1)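 HepDE19 cells (5×10^3/well) were treated with compounds as for the EC50 runs and, after 5 days, given CCK-8 for 2 h at 37° C. Absorbance was read at OD450 and OD630, and CC50 was taken as the concentration killing 50% of host cells.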

[4] = as above; assay type: cell-based, human; conditions: human, HepDE19 cells; cytotoxicity, concentration resulting in death of 50% of host cells
Method in brief: as §1

[5] = Human microsomal clearance assay; assay type: in vitro ADME
Method in brief: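 Liver microsomes (0.5 mg/mL protein) were incubated with 1 μM compound at 37 °C, pH 7.4 phosphate, with an NADPH-regenerating system. Samples at 0-30 min were quenched and measured by LC-MS/MS for parent loss. No-NADPH controls were included.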

SMILES	solubility thermodynamic ([1]; pH 6.5, aqueous buffer) [µg/mL]	EC50 [2] [µM]	Selectivity index (CC50/EC50) [3]	CC50 at 5 days [4] [µM]	CLh ([5]; human, 1 μM, pH 7.4) [mL/min/kg]	solubility thermodynamic ([1]; aqueous buffer, 0.05 M phosphate buffer (pH 6.5), reported as bigger than the value if more than 80% of the sample is in solution, read-out: Lysa) [µg/mL]	CLh ([5]; human microsomal clearance) [mL/min/kg]
COC(=O)C1=C(CN2C3COCC2CN(C(N)=O)C3)NC(c2nccs2)=N[C@H]1c1ccc(F)cc1Br [Example 54, Methyl (4R)-4-(2-bromo-4-fluoro-phenyl)-6-[(7-carbamoyl-3-oxa-7,9-diazabicyclo[3.3.1]nonan-9-yl)methyl]-2-thiazol-2-yl-1,4-dihydropyrimidine-5-carboxylate]	119 (≈ 205 µM)	0.0082	7300	60	6.5	–	–
COC(=O)C1=C(CN2CC3(CO)CC2CO3)NC(c2nccs2)=N[C@H]1c1ccc(F)cc1Cl (stereo partly drawn) [Example 39]	–	0.032	>5848	> 100	–	> 610	7.4
COC(=O)C1=C(CN2C3CC(F)(F)C2C[C@@](O)(CC(=O)O)C3)NC(c2nccs2)=N[C@H]1c1ccc(F)cc1Cl (single isomer, unassigned) [Example 116]	495 (≈ 846 µM)	0.0073	>13699	> 100	2.6	–	–
CCOC(=O)C1=C(CN2C3COCC2C(F)(F)[C@H](CC(=O)O)C3)NC(c2nccs2)=N[C@H]1c1cccc(F)c1Cl (stereo partly drawn) [Example 130, 2-[(7S)-9-[[(4R)-4-(2-chloro-3-fluoro-phenyl)-5-ethoxycarbonyl-2-thiazol-2-yl-1,4-dihydropyrimidin-6-yl]methyl]-6,6-difluoro-3-oxa-9-azabicyclo[3.3.1]nonan-7-yl]acetic acid]	219 (≈ 366 µM)	0.0064	10830	69	5.0	–	–
CCOC(=O)C1=C(CN2[C@@H]3COC[C@H]2C[C@H](CC(=O)O)C3)NC(c2nccs2)=N[C@H]1c1ccccc1Br [Example 77, Exo-2-[(1S,5R)-9-[[(4R)-4-(2-bromophenyl)-5-ethoxycarbonyl-2-thiazol-2-yl-1,4-dihydropyrimidin-6-yl]methyl]-3-oxa-9-azabicyclo[3.3.1]nonan-7-yl]acetic acid]	491 (≈ 833 µM)	0.014	>7143	> 100	1.3	–	–
CCOC(=O)C1=C(CN2[C@@H]3COC[C@H]2C[C@H](CC(=O)O)C3)NC(c2nccs2)=N[C@H]1c1ccc(F)c(F)c1C [Example 78, Exo-2-[(1S,5R)-9-[[(4S)-4-(3,4-difluoro-2-methyl-phenyl)-5-ethoxycarbonyl-2-thiazol-2-yl-1,4-dihydropyrimidin-6-yl]methyl]-3-oxa-9-azabicyclo[3.3.1]nonan-7-yl]acetic acid]	111 (≈ 198 µM)	0.002	36515	73	1.9	–	–
CCOC(=O)C1=C(CN2[C@@H]3COC[C@H]2C[C@H](CC(=O)O)C3)NC(c2nccs2)=N[C@H]1c1ccccc1Cl [Example 72, Exo-2-[(1S,5R)-9-[[(4R)-4-(2-chlorophenyl)-5-ethoxycarbonyl-2-thiazol-2-yl-1,4-dihydropyrimidin-6-yl]methyl]-3-oxa-9-azabicyclo[3.3.1]nonan-7-yl]acetic acid]	640 (≈ 1170 µM)	0.0132	>7576	> 100	2.8	–	–
COC(=O)C1=C(CN2[C@@H]3CC[C@@]2(C(=O)O)COC3)NC(c2nccs2)=N[C@H]1c1ccc(F)c(F)c1C [Example 85, (1R,5S)-8-[[(4S)-4-(3,4-difluoro-2-methyl-phenyl)-5-methoxycarbonyl-2-thiazol-2-yl-1,4-dihydropyrimidin-6-yl]methyl]-3-oxa-8-azabicyclo[3.2.1]octane-5-carboxylic acid]	> 639	0.0066	>15152	> 100	1.3	–	–
COC(=O)C1=C(CN2[C@@H]3COC[C@H]2C[C@H](CC(=O)O)C3)NC(c2nccs2)=N[C@H]1c1cccc(F)c1Br [Example 74, Exo-2-[(1S,5R)-9-[[(4R)-4-(2-bromo-3-fluoro-phenyl)-5-methoxycarbonyl-2-thiazol-2-yl-1,4-dihydropyrimidin-6-yl]methyl]-3-oxa-9-azabicyclo[3.3.1]nonan-7-yl]acetic acid]	> 621	0.0109	>9174	> 100	0.5	–	–
COC(=O)C1=C(CN2[C@@H]3C[C@@H](CC(=O)O)C[C@H]2C(F)(F)C3)NC(c2nccs2)=N[C@H]1c1ccc(F)cc1Cl [Example 109, 2-[(1R,3R,5S)-8-[[(4R)-4-(2-chloro-4-fluoro-phenyl)-5-methoxycarbonyl-2-thiazol-2-yl-1,4-dihydropyrimidin-6-yl]methyl]-6,6-difluoro-8-azabicyclo[3.2.1]octan-3-yl]acetic acid]	107 (≈ 188 µM)	0.0017	>58824	> 100	7.2	–	–
COC(=O)C1=C(CN2[C@@H]3CC[C@@]2(C(=O)O)COC3)NC(c2nccs2)=N[C@H]1c1ccc(F)cc1Cl [Example 82, (1R,5S)-8-[[(4R)-4-(2-chloro-4-fluoro-phenyl)-5-methoxycarbonyl-2-thiazol-2-yl-1,4-dihydropyrimidin-6-yl]methyl]-3-oxa-8-azabicyclo[3.2.1]octane-5-carboxylic acid]	> 628	0.0131	>7634	> 100	0	–	–
COC(=O)C1=C(CN2[C@@H]3COC[C@H]2C[C@H](CC(=O)O)C3)NC(c2nccs2)=N[C@H]1c1cccc(F)c1Cl [Example 59, Exo-2-[(1S,5R)-9-[[(4R)-4-(2-chloro-3-fluoro-phenyl)-5-methoxycarbonyl-2-thiazol-2-yl-1,4-dihydropyrimidin-6-yl]methyl]-3-oxa-9-azabicyclo[3.3.1]nonan-7-yl]acetic acid]	> 732	0.0156	>6410	> 100	2.1	–	–
CCOC(=O)C1=C(CN2[C@@H]3COC[C@H]2C[C@@H](CC(=O)O)C3)NC(c2nccs2)=N[C@H]1c1cccc(F)c1Cl [Example 65, Endo-2-[(1S,5R)-9-[[(4R)-4-(2-chloro-3-fluoro-phenyl)-5-ethoxycarbonyl-2-thiazol-2-yl-1,4-dihydropyrimidin-6-yl]methyl]-3-oxa-9-azabicyclo[3.3.1]nonan-7-yl]acetic acid]	375 (≈ 666 µM)	0.0118	5980	71	2.8	–	–
COC(=O)C1=C(CN2[C@@H]3COC[C@H]2C[C@H](CC(=O)O)C3)NC(c2nccs2)=N[C@H]1c1ccc(F)cc1Br [Example 58, 2-[(1S,5R)-9-[[(4R)-4-(2-bromo-4-fluoro-phenyl)-5-methoxycarbonyl-2-thiazol-2-yl-1,4-dihydropyrimidin-6-yl]methyl]-3-oxa-9-azabicyclo[3.3.1]nonan-7-yl]acetic acid]	> 701	0.0114	>8772	> 100	2.1	–	–
COC(=O)C1=C(CN2C3COCC2CC(CC(=O)O)C3)NC(c2nccs2)=N[C@H]1c1ccc(F)cc1Br (stereo partly drawn) [Example 28, (R)-4-(2-Bromo-4-fluoro-phenyl)-6-(7-carboxymethyl-3-oxa-9-aza-bicyclo[3.3.1]non-9-ylmethyl)-2-thiazol-2-yl-1,4-dihydro-pyrimidine-5-carboxylic acid methyl ester]	> 655	0.015	>9804	> 100	0.6	–	–
